Key:
[1] = biological target: T1, human serum albumin (HSA) (Homo sapiens, UniProt P02768); test: Albumin binding by tryptophan fluorescence emission quenching; details: for K(HSA), HSA-binding constant / kq(HSA), HSA-quenching constant: HSA 3 μM; for K(HSA), HSA-binding constant: buffer pH 7.0, Scatchard equation; for kq(HSA), HSA-quenching constant: buffer pH 7.0, λexc 295 nm, Stern–Volmer, τ0 = 10^–8 s; for HSA fluorescence, % of the initial fluorescence intensity (I/Io): λem,max = 351 nm, final value of titration (Figure S10)
T1 construct: purchased
T1 sequence (P02768 25-609): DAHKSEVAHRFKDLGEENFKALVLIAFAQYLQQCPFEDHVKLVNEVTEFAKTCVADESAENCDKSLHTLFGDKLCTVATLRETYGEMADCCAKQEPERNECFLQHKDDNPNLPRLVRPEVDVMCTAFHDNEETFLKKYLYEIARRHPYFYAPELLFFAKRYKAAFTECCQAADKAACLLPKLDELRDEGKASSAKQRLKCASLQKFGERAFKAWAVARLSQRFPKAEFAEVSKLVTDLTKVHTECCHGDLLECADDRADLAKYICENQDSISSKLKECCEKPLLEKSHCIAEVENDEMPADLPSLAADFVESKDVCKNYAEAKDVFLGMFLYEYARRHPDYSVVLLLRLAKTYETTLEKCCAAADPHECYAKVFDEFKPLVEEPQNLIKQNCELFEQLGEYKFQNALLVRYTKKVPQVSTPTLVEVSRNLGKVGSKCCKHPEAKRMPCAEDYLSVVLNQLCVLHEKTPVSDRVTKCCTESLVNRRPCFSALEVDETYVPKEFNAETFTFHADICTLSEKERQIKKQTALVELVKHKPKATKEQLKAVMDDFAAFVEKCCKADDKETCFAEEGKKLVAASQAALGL
Experimental: (§1) Serum albumins (Sas) are the most abundant serum proteins and play a role in the circulatory system, primarily in the transport of drugs and other bioactive small molecules through the bloodstream.
(§2) The SA-quenching constants (kq) for the compounds (Table 5) were calculated with the Stern–Volmer quenching equation (Equations (S2) and (S3)).
(§3) Albumin-binding constants (K) were calculated using the Scatchard equation (Equation (S4)). […]
(§4) S2. Interaction with serum albumins
(§5) The albumin–binding study for the compounds was carried out b y fluorescence emission

[2] = biological target: T2, bovine serum albumin (BSA) (Bos taurus, UniProt P02769); test: as above; details: for K(BSA), BSA-binding constant / kq(BSA), BSA-quenching constant: BSA 3 μM; for K(BSA), BSA-binding constant: buffer pH 7.0, Scatchard equation; for kq(BSA), BSA-quenching constant: buffer pH 7.0, λexc 295 nm, Stern–Volmer, τ0 = 10^–8 s; for BSA fluorescence, % of the initial fluorescence intensity (I/Io): λem,max = 342 nm, final value of titration (Figure S11)
T2 construct: purchased
T2 sequence (P02769 25-607): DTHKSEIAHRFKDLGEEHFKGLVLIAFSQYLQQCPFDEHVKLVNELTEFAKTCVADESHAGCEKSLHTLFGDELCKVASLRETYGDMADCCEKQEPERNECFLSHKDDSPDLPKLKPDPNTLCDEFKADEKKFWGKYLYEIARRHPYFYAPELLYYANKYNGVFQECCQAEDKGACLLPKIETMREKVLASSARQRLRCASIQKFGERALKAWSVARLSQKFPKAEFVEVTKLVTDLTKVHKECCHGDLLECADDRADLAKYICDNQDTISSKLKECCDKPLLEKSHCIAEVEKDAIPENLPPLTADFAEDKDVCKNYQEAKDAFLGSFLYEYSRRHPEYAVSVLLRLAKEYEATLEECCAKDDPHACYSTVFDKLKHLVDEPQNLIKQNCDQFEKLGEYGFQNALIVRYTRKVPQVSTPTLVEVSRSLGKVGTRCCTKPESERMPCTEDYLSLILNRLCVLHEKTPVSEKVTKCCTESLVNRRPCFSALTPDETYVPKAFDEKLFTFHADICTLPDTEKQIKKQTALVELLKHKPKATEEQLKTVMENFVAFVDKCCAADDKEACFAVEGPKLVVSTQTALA
Experimental: as §1, §2, §3, §4, §5

[3] = test system: Xanthomonas campestris ATCC 1395; test: Antimicrobial activity, MIC determination; format: cell-based; details: X. campestris; 24-h incubation, 28°C
Experimental: (§6) The in vitro antimicrobial activity of the compounds was evaluated by determining the minimum inhibitory concentration (MIC) against the Gram-positive microorganisms Staphylococcus aureus ATCC 6538 (S. aureus) and Bacillus subtilis ATCC 6633 (B. subtilis) and the Gram-negative microorganism Xanthomonas campestris ATCC 1395 (X. campestris). The affinity of the compounds for bovine serum albumin (BSA) and human serum albumin (HSA) was studied by fluorescence emission spectroscopy, and the corresponding binding constants were determined. Furthermore, the interaction of the compounds with calf-thymus DNA (CT DNA) was investigated to determine the possible mode of interaction by the following methods: (i) UV–vis spectroscopy (where the DNA-binding constants of the complexes (Kb) were also determined), (ii) DNA-viscosity measurements, (iii) cyclic voltammetry and (iv) competitive DNA-binding studies with the classic intercalator ethidium bromide (EB) performed by fluorescence emission spectroscopy.
(§7) Three bacterial strains, one Gram(−) (X. campestris) and two Gram(+) (S. aureus and B. subtilis), were used in order to test the antimicrobial activity of the compounds.
(§8) The antimicrobial activity of the compounds was evaluated b y determining their respective MIC values towards one Gram–( –) (Xanthomonas campestris ATCC 1395 (X. campestris)) and two Gram–(+) (Staphylococcus aureus ATCC 6538 (S. aureus) and Bacillus subtilis ATCC 6633 (B. subtilis)) bacterial species. Cultures of these microbial strains were grown on a rich selective agar medium and stored at 4°C. The selective media used were Nutrient Agar or Broth for B. subtilis and S. aureus, and Yeast Mold Agar or Broth for X. campestris . Cells picked from the surface of the stored cultures were used to initiate liquid pre–cultures of the same selective medium at an initial turbidity of roughl y 1 McFarland unit. Pre–cultures were incubated for 24 h in a rotar y sh aking incubator and subsequently the y were used to inoculate the test cultures used for the determination of MIC at an initial turbidity of 0.5 McFarland units. The test cultures consisted of Mueller–Hinton broth (Deben Diagnostics Ltd) containing different concentrations of the compounds. Different concentrations were achieved as follows: the compounds were freshly dissolved in DMSO to a concentration of 1 mg/mL and they were diluted with DMSO, using the method of progressive double dilution. Therefore, working solutions with decreasing concentrations of the compounds under investigation were achieved. The working solutions were subsequently diluted to the final desired concentration b y addition to the growth medium at a proportion of 2:98. MIC values were determined as the lowest concentrations of the tested compounds that inhibited visible growth of each respective organism after a 24–h incubation [ S1]. Bacterial growth was determined b y measuring the turbidit y of appropriatel y diluted cultures at 600 nm with reference to equall y diluted sterile growth medium and the inhibition achieved was calculated b y comparing the turbidit y of each culture to the average of the turbidit y of three non–inhibited cultures. All test cultures were grown in triplicates and for the determination of MIC, growth had to be inhibited in at least two cultures of the triplicate. In cubation temperatur e at all stages was 37°C ex cept for X. campestris t h at was cultivated at 28°C [S2]. […]
(§9) The fluorescence spectra of the compounds were recorded under the same experimental conditions and presented a low–intensity emission band in the region 405–410 nm .

[4] = test system: Staphylococcus aureus ATCC 6538; test: Antimicrobial activity, MIC determination; format: cell-based; details: S. aureus; 24-h incubation, 37°C
Experimental: as §6, §7, §8, §9

[5] = test system: Bacillus subtilis ATCC 6633; test: Antimicrobial activity, MIC determination; format: cell-based; details: B. subtilis; 24-h incubation, 37°C
Experimental: as §6, §7, §8, §9

SMILES	K(HSA), HSA-binding constant [1]	kq(HSA), HSA-quenching constant [1]	HSA fluorescence, % of the initial fluorescence intensity (I/Io) [1]	K(BSA), BSA-binding constant [2]	kq(BSA), BSA-quenching constant [2]	BSA fluorescence, % of the initial fluorescence intensity (I/Io) [2]	MIC [3]	MIC (values in parentheses) [3]	MIC [4]	MIC (values in parentheses) [4]	MIC [5]	MIC (values in parentheses) [5]
CN1CCN(c2c(F)cc3c(=O)c(C(=O)[O-])cn(CCF)c3c2F)CC1.CN1CCN(c2c(F)cc3c(=O)c(C(=O)[O-])cn(CCF)c3c2F)CC1.[Cu+2] [complex 1, [Cu(flrx)2]]	8.39(±0.27) × 10^4 M^−1	1.09(±0.08) × 10^13 M^−1s^−1	33.3%	7.19(±0.21) × 10^4 M^−1	1.87(±0.09) × 10^13 M^−1s^−1	17.3%	8 µg/mL	10.0 µM	8 µg/mL	10.0 µM	8 µg/mL	10.0 µM
CN1CCN(c2c(F)cc3c(=O)c(C(=O)[O-])cn(CCF)c3c2F)CC1.CN1CCN(c2c(F)cc3c(=O)c(C(=O)[O-])cn(CCF)c3c2F)CC1.O.O.[Mn+2] [complex 2, [Mn(flrx)2(H2O)2]]	9.58(±0.39) × 10^4 M^−1	1.42(±0.04) × 10^13 M^−1s^−1	28.5%	1.45(±0.04) × 10^5 M^−1	3.45(±0.16) × 10^13 M^−1s^−1	11.1%	16 µg/mL	18.7 µM	4 µg/mL	4.7 µM	4 µg/mL	4.7 µM
CN1CCN(c2c(F)cc3c(=O)c(C(=O)[O-])cn(CCF)c3c2F)CC1.CN1CCN(c2c(F)cc3c(=O)c(C(=O)[O-])cn(CCF)c3c2F)CC1.CO.CO.[Co+2] [complex 4, [Co(flrx)2(MeOH)2]]	7.68(±0.33) × 10^4 M^−1	6.05(±0.13) × 10^12 M^−1s^−1	44.3%	1.02(±0.05) × 10^5 M^−1	1.34(±0.03) × 10^13 M^−1s^−1	26.3%	16 µg/mL	18.6 µM	4 µg/mL	4.6 µM	8 µg/mL	9.3 µM
CN1CCN(c2c(F)cc3c(=O)c(C(=O)[O-])cn(CCF)c3c2F)CC1.CN1CCN(c2c(F)cc3c(=O)c(C(=O)[O-])cn(CCF)c3c2F)CC1.CO.CO.[Ni+2] [complex 5, [Ni(flrx)2(MeOH)2]]	5.76(±0.28) × 10^4 M^−1	1.09(±0.03) × 10^13 M^−1s^−1	34.1%	1.75(±0.07) × 10^5 M^−1	2.37(±0.13) × 10^13 M^−1s^−1	19.2%	16 µg/mL	18.6 µM	4 µg/mL	4.6 µM	4 µg/mL	4.6 µM
CN1CCN(c2c(F)cc3c(=O)c(C(=O)[O-])cn(CCF)c3c2F)CC1.[Cl-].[Cu+2].c1ccc(-c2ccccn2)nc1 [complex 6, [Cu(flrx)(bipy)Cl]]	1.02(±0.03) × 10^5 M^−1	6.08(±0.06) × 10^12 M^−1s^−1	48.5%	6.12(±0.33) × 10^4 M^−1	1.59(±0.07) × 10^13 M^−1s^−1	25.7%	8 µg/mL	12.8 µM	4 µg/mL	6.4 µM	8 µg/mL	12.8 µM
CN1CCN(c2c(F)cc3c(=O)c(C(=O)[O-])cn(CCF)c3c2F)CC1.[Cl-].[Cu+2].c1ccc(Nc2ccccn2)nc1 [complex 7, [Cu(flrx)(bipyam)Cl]]	1.31(±0.05) × 10^5 M^−1	5.57(±0.18) × 10^12 M^−1s^−1	49.3%	1.26(±0.05)×10^5 M^−1	1.56(±0.04) × 10^13 M^−1s^−1	26.6%	> 32 µg/mL	> 50.0 µM	> 16 µg/mL	> 25.0 µM	> 16 µg/mL	> 25.0 µM
CN1CCN(c2c(F)cc3c(=O)c(C(=O)[O-])cn(CCF)c3c2F)CC1.[Cl-].[Cu+2].c1cnc2c(c1)ccc1cccnc12 [complex 8, [Cu(flrx)(phen)Cl]]	3.45(±0.14) × 10^4 M^−1	4.08(±0.13) × 10^12 M^−1s^−1	56.5%	5.03(±0.22) × 10^4 M^−1	1.04(±0.03) × 10^13 M^−1s^−1	34.4%	8 µg/mL	12.3 µM	8 µg/mL	12.3 µM	8 µg/mL	12.3 µM
CN1CCN(c2c(F)cc3c(=O)c(C(=O)[O-])cn(CCF)c3c2F)CC1.CN1CCN(c2c(F)cc3c(=O)c(C(=O)[O-])cn(CCF)c3c2F)CC1.[Mn+2].c1ccc(-c2ccccn2)nc1 [complex 9, [Mn(flrx)2(bipy)]]	6.36(±0.31) × 10^4 M^−1	8.09(±0.17) × 10^12 M^−1s^−1	39.8%	1.39(±0.05) × 10^5 M^−1	2.45(±0.09) × 10^13 M^−1s^−1	18.0%	16 µg/mL	16.9 µM	8 µg/mL	8.4 µM	8 µg/mL	8.4 µM
CN1CCN(c2c(F)cc3c(=O)c(C(=O)[O-])cn(CCF)c3c2F)CC1.CN1CCN(c2c(F)cc3c(=O)c(C(=O)[O-])cn(CCF)c3c2F)CC1.[Mn+2].c1ccc(Nc2ccccn2)nc1 [complex 10, [Mn(flrx)2(bipyam)]]	8.40(±0.58) × 10^4 M^−1	8.01(±0.23) × 10^12 M^−1s^−1	47.4%	6.46(±0.39) × 10^4 M^−1	1.20(±0.04) × 10^13 M^−1s^−1	31.6%	> 32 µg/mL	> 33.2 µM	16 µg/mL	16.6 µM	16 µg/mL	16.6 µM
